Read-outs that look alike come from different tables or passages of the source.

In data set [1] the test system is perforant path / dentate gyrus of the hippocampus (fEPSPs). Nature of the data set: Effect on evoked fEPSPs in rat hippocampus (anesthetized animals, in vivo). More on the design: species or system Rat (Long Evans). The settings on record: for Minimum Effective Dose: IP, dose range 5-20 mg/kg; for duration of the fEPSP effect: about 2 hours monitoring, CX717 at 20 mg/kg; for effect on evoked fEPSP / maximum increase in fEPSP amplitude: intraperitoneal administration. The method, then:
Further selection and characterization of ampakines to identify anti-ADHD drugs useful within the invention involved electrophysiological studies (to measure “electrically evoked field excitatory postsynaptic potentials” (fEPSPs) for test compounds). CX717 and CX1739 were tested for their ability to facilitate synaptic responses in vivo in anesthetized animals following peripheral administration. Stimulating and recording electrodes were inserted into the perforant path and dentate gyrus of the hippocampus, respectively. Electrically evoked field excitatory postsynaptic responses (fEPSPs) were measured before administration of ampakines, and for approximately 2 hours following intraperitoneal administration of ampakines.
Electrically evoked field excitatory postsynaptic potentials (fEPSPs) were determined for the exemplary test ampakines CX717 and CX1739 as described. […] The response magnitude was related to the plasma levels achieved during the study. […] Both ampakines appear to produce a 25% maximum increase in fEPSP amplitude.

In a further data set the test system is Rat (Wistar). Nature of the data set: Novel object recognition memory. It counts as in vivo. The settings on record: for Minimum Effective Dose: IP. The procedure: Additional Novel Object Recognition behavioral model studies were conducted to further elucidate the anti-ADHD activities of CX717 and CX1739. Rats were habituated to a test box for two 5 minute sessions on consecutive days. Each test session consisted of two phases: in the first phase (“sample period”), two identical objects (A1 and A2) were placed in the far corners of the box, and the rats were allowed to explore the objects. After a 24 hour delay, rats were re-introduced to the arena (“test period”) now containing a third identical copy of the familiar object (A3) and a new object (B), placed in the same locations as in the first phase, and the total time spent exploring each of the objects was determined over a 3-min duration. For CX717 drug treatment, rats were dosed 30 min prior to each sample session with either 0.1, 0.3, 1.0 mg/kg CX717 (p.o.); vehicle (0.5% methylcellulose, p.o.) or 0.9 mg/kg Aricept (E2020, i.p.). The exploration times for the full 3-min were calculated and expressed as the discrimination index, d1, defined as the absolute difference in time spent exploring the novel object minus the familiar object.
For CX1739 Male Wistar rats were assessed for cognitive ability in a test apparatus comprising an open-field arena placed in a sound-attenuated room under dimmed lighting. Rat exploration and activity were captured by a digital camera, and viewed on a monitor in an adjoining area. Following a 5-minute habituation period, each animal was placed in the test arena in the presence of two identical objects (plastic shapes) and the time spent actively exploring the objects during a 5-minute test period (T1) was recorded. After 24 hours, each rat was again placed in the test arena for 5 minutes (T2) in the presence of one familiar object and one novel object, and the time spent exploring both objects was recorded. The Recognition Index was calculated as the percentage of total exploration time spent exploring the novel object during the retention session (T2), which provides the primary measure of cognitive function in this assay.
The Novel object recognition (NOR) paradigm is a rodent model of recognition learning memory retrieval and takes advantage of the spontaneous behavior of rodents to investigate a novel object compared with a familiar object. NOR has been employed extensively to indicate cognition-enhancing properties of drug candidates, predictive of therapeutic efficacy of positively-assaying drugs for reducing ADHD symptoms in humans.

The test system of data set [2] is aged Rhesus macaque monkeys. Briefly: Delayed match-to-sample test. The following applies: for Minimum Effective Dose: PO. In kind it is in vivo, Monkey (Rhesus). The procedure:
Further elucidating the potent behavioral and cognitive effects of exemplary ampakines useful within the invention, additional studies using the well known Monkey Delayed Match to Sample assay were conducted. CX1739 was evaluated using aged Rhesus macaque monkeys (18 to 33 years old), undertaking the delayed match-to-sample (DMTS) task. The stimuli included red, blue, or yellow rectangles. A trial was initiated by presentation of a sample rectangle composed of one of the three colors. The sample rectangle remained in view until the monkey touched within its borders to initiate a pre-programmed delay (retention) interval. Following the delay interval, two choice rectangles were presented, with one of the two choice colors being the color matching the stimulus and the other (incorrect) color as one of the two remaining colors. A correct (matching) choice was reinforced. Non-matching choices were neither reinforced nor punished. The duration for each delay interval was adjusted for each subject until […] of group performance accuracy approximated zero delay (85-100% of trials answered correctly), short delay interval (75-84% correct), medium delay interval (65-74% correct), and long delay interval (55-64% correct). The inter-trial interval was 5 seconds and each session consisted of 96 trials.

Data set [3] deals with hippocampal LTP (hilus of the dentate gyrus). Nature of the data set: Effect on induction of LTP in rat hippocampus (anesthetized rat, in vivo). More on the design: species or system Rat (Long Evans). The settings on record: for Minimum Effective Dose: IP.
Data set [4] relates to hippocampal slices (CA1 population spikes). The method, then: Slice Seizure Assay In these studies extracellular field potentials recording (Population Spikes) in hippocampal slices were used to determine convulsant activity (potential seizure liability). Transverse 300-400 μm hippocampal slices were taken from adult male Sprague-Dawley rats (4-6 week old) and incubated in a submerge slice recording chamber system for 30 to 60 min. The chamber was perfused with oxygenated artificial cerebral spinal fluid (ACSF) comprising (in mM): NaCl 124, KCl 3.0, KH2PO4 1.25, CaCl2.34, MgSO4 2.5, NaHCO3 26 and glucose 10 at room temperature. Population Spike (PS) recordings were made with glass electrodes filled with 2 M NaCl (1-5 megaohm) places in the region of pyramidal cell body of CA1. Electrical stimuli were produced with twisted bipolar nichrome wire electrodes in the Schaffer-commissural fiber afferents. Population spike was induced by activating Schaffer-commissural fiber using single pulse stimulation with delivered at 0.05 Hz. The maximal amplitude of PS was determined by increase stimulating intensity till second spike appears. Then the intensity was decreased to induce a 50% to 60% of maximal response. The amplitude of PS was measured for each response and plotted against time. At same time the amplitude of second PS and/or number of PS was measured and plotted against time. The size of the second PS and numbers of PS were used to estimate the seizure potential or seizure state. With 20 to 50 min stable baseline established testing compound was perfused for 10 to 20 min at each concentration to observe the effect. […] The perfusion then was switched to control ACSF and continued to record until drug effect was washed back to the baseline. CX717 and CX1739 exemplary test ampakine compounds were prepared by dissolving in DMSO and then added to ACSF.
The upper 3 panels of FIG. 5 show amplitudes for PS 1, 2 and 3 m respectively. Lower panel is the measurement of the number of PS.

Consider `O=C(c1ccc2nonc2c1)N1CCOCC1` [CX717, 1-(benzofurazan-5-ylcarbonyl)morpholine], for which, in data set [1], the “Minimum Effective Dose” value came out at 5 mg/kg, the “duration of the fEPSP effect” value is reported as “plateaued for the duration of monitoring”, the “effect on evoked fEPSP” value was “long-lasting increase in the evoked fEPSP in a concentration-dependent manner” and the “maximum increase in fEPSP amplitude” value was roughly 25%. The “d1 scores (discrimination index)” value in the data set with Rat (Wistar) (0.3 mg/kg, compared to vehicle) is listed as “significant increase”. The “Minimum Effective Dose” value with Rat (Wistar) is listed as 0.3 mg/kg. In data set [2], the “Minimum Effective Dose” value is given as 0.8 mg/kg. In data set [3] (2 mg/kg, after the tetanus, P<0.01), the “enhancement of hippocampal LTP relative to baseline” value worked out at 200%. Further, the “Minimum Effective Dose” value in data set [3] is on record as 2 mg/kg. In addition, the “seizure activity (population spikes)” value in data set [4] (concentrations up to 600 uM) is recorded as “did not display seizure activity”.
For `CN(C(=O)c1ccc2nonc2c1)C1CCOCC1` [CX1739, N-Methyl-N-tetrahydro-2H-pyran-4-yl-[2,1,3]-benzoxadiazole-5-carboxamide], in data set [1], the “Minimum Effective Dose” value is listed as 5 mg/kg, the “duration of the fEPSP effect” value was “declined to baseline after two hours”, the “effect on evoked fEPSP” value is listed as “substantial increase in EPSP amplitude” and the “maximum increase in fEPSP amplitude” value was roughly 25%. For the same compound, in the data set with Rat (Wistar) (0.03 mg/kg), the “preference for novel object exploration versus positive control” value is listed as “comparable to that of 3 mg/kg galantamine”. Also, in the data set with Rat (Wistar), the “Minimum Effective Dose” value was 0.03 mg/kg. In the data set with Rat (Wistar) (rat, in vivo), the “preference for exploring the novel object” value is listed as “significant increase”. Further, in data set [2], the “Minimum Effective Dose” value is reported as 0.3 mg/kg. Besides, in data set [2] (oral, 45 min prior to testing), the “performance with medium or long delays” value is given as “did not improve performance”. Besides, in data set [2] (oral, 45 min prior to testing, particularly the two higher doses, persisted at 24 hours), the “mean accuracies during short delay trials relative to vehicle” value is given as “increased”. Also, the “task accuracy at the Best Dose” value in data set [2] (sessions 45 min after administration, P=0.027, restricted to long delay trials) is “statistically significant increase in task accuracy”. The “effect on LTP” value in data set [3] (3 mg/kg, p<0.01) is recorded as “statistically significant increase in LTP”. For the same compound, in data set [3], the “Minimum Effective Dose” value is reported as 3 mg/kg. The “seizure activity (population spikes)” value in data set [4] (100 μM for 20 min and then 200 μM for another 20 min) is “no sign of seizure activity”. In data set [4] (100 μM then 200 μM perfusion), the “amplitude of the first PS” value is given as “did not change the amplitude of the first PS”.
